Measured values reported in paper PMC9413514, “Accessing Lipophilicity and Biomimetic Chromatography Profile of Biologically Active Ingredients of Botanicals Used in the Treatment of Inflammatory Bowel Disease” (Pharmaceuticals, 2022).

How the values were obtained:
[1] = C18-TLC assay (hydrophobicity); assay type: physicochemical; details: for RM0 (TLC hydrophobicity index, intercept of linear equation): RP-18 TLC, PBS pH 7.4/methanol, extrapolated to zero organic modifier
From the text: In TLC measurements RF value depends on the chemical structure of analyte and its interaction with stationary and mobile phase. […] As it was expected, with increase in the percentage of organic modifier in the mobile phase the increase in RF values can be seen with accompanied decrease in RM values expressed as RM = log(1/RF - 1). Measured RF values were in the range from 0.1 to 0.7 obtained in a wide range of mobile phase organic modifier concentrations. […] Increasing concentration of the organic modifier in the mobile phase caused a slower decrease in the RM values for less hydrophobic analytes than for more hydrophobic ones. […] Increase in the hydrophobicity within curcuminoids and andrographolides is related to increase in lipophilicity determined by shake-flask method (Table 3). Stock solutions of analytes and calibration standards were prepared by dissolving 10 mg of each solute in 10 mL of methanol and kept at 4 °C. Working solutions were freshly prepared at the beginning of each day by dilution of the stock solutions to 100 μg/mL with methanol for TLC measurements or mobile phase for HPLC measurements. Before use, the samples were sonicated (Elmasonic […]) for 10 min at 25 °C and all working solutions were filtered through 0.2 μm polyethersulfone filters (Obrnuta faza). To protect analytes from photodegradation, the amber glass HPLC vials were used. Analyses were carried out using a commercially available 10 cm x 20 cm RP-18 TLC plates with fluorescent indicator (Merck KGaA). 5 μL of each working solution ([…]) was applied to the plates as 5 mm bends, 10 mm from the lower edge and 15 mm from sides of plates. The mobile phases were prepared by mixing the respective amounts of PBS (20 mM, pH 7.4) and methanol from 50% to 80% of organic solvent in 5% increment. The vertical flat-bottom chamber ([…], Switzerland) with a stainless-steel lid was saturated with mobile phase for 30 min. The plates were developed to a distance of 9 cm at room temperature, dried in the open air for 5 min and visualized under λ = 254 nm UV light (UV Cabinet with Dual Wavelength UV lamp by Camag).

[2] = C18-HPLC assay (hydrophobicity); assay type: physicochemical; details: for logk0 (HPLC hydrophobicity index, intercept of linear equation): Zorbax SB C18, PBS pH 7.4/methanol, extrapolated to zero organic modifier
Description: The principles of hydrophobicity determination by HPLC are characterized by the logarithm of retention factor (k), defined as logk = log (tR−t0)/t0, where tR is retention time of analyte and t0 is the dead time. […] The percentage of methanol in the mobile phase was optimized so that the analytes had retention time between dead time and a maximum of 20 min keeping the analysis time as short as possible, and the peak shape acceptable (peak asymmetry factor were between 0.8 and 1.2). […] The HPLC hydrophobicity index, logk0, was determined by extrapolation of the organic modifier in the mobile phase to its zero concentration.
(§1) Stock solutions of analytes and calibration standards were prepared by dissolving 10 mg of each solute in 10 mL of methanol and kept at 4 °C. Working solutions were freshly prepared at the beginning of each day by dilution of the stock solutions to 100 μg/mL with methanol for TLC measurements or mobile phase for HPLC measurements. Before use, the samples were sonicated (Elmasonic XtraTT, Elma Schmidbauer) for 10 min at 25 °C and all working solutions were filtered through 0.2 µm polyethersulfone filters (Obrnuta faza). To protect analytes from photodegradation, the amber glass HPLC vials were used.
C18-HPLC assay was carried out at Agilent HPLC 1100 and Zorbax SB C18 chromatographic column (length 250 mm.6 mm, particle size 5 µm) by Agilent Technologies, while IAM-HPLC assay was conducted using IAM P.C.DD2 chromatographic column (length 50 mm, i.d. 3.0 mm, particle size […]) by Regis Technologies (Morton Grove, IL, USA). Retention data were collected at 25.0 ± 0.1 °C using isocratic method working with mobile phases, mixing the respective amounts of PBS (10 mM, pH 7.4) and methanol from 35% to 80% of organic solvent in 5% increment. Each mobile phase was shaken vigorously and filtrated through membrane filter, no. 66, diameter 47 mm, pore size 0.45 µm by Supelco and degassed by sonication 5 min before use. The injection volume was set at 10 µL, and the measurements were carried out at flow rate 1.0 mL/min. Natrium nitrate solution (0.1 mg/mL in mobile phase) was used as the marker of dead-time. The absorbance of the analytes during a chromatographic run was collected in the spectral range of 200–400 nm, and the detection wavelength for each analyte was the one providing the maximum peak height.

[3] = biological target: T1, human serum albumin (HSA) (Homo sapiens, UniProt P02768); assay: HSA-HPAC assay (plasma protein binding); assay type: in vitro ADME; details: Chiralpak-HSA, pH 7.4, 25 °C; spread is RSD in %
T1 construct: purchased ChromTech (Cedex, France) Chiralpak-HSA
From the text: The gradient retention times obtained by HSA-HPAC and AGP-HPAC assays were standardized using a calibration set of compounds with known percentage of plasma protein binding data and procedure described in our previously published study. […] This verification assured that the protein affinity indices obtained by HPAC assays depict not only unspecific generally lipophilicity-driven interactions, but also highly specific recognition forces responsible of enantioselectivity.
as §1
The binding of biologically active compounds to the plasma proteins was investigated using affinity chromatographic columns by ChromTech (Cedex, France) containing immobilized human serum albumin (HSA) (Chiralpak-HSA, length 50 mm, i.d. 4.6 mm, particle size 5 µm) and α1-acid glycoprotein (AGP) (Chiralpak-AGP, length 50 mm, i.d. 4.6 mm, particle size 5 µm) and Agilent HPLC 1100 instrument. The 20 mM potassium phosphate buffer with the pH adjusted to 7.4 and iso-propanol were used as mobile phase components A and B. Retention data were collected at 25.0 ± 0.1 °C using gradient program as follows: 0 min/0% B, 6 min/30% B, 15 min/30% B and 20 min/0% B. Injection volume was set at 10 µL and the measurements were carried out at 25.0 ± 0.1 °C with flow rate of 1.5 mL/min. The absorbance of the analytes during a chromatographic run was collected in the spectral range 200–400 nm, and the detection wavelength for each analyte was the one providing the maximum peak height.

T1 sequence (P02768 25-609): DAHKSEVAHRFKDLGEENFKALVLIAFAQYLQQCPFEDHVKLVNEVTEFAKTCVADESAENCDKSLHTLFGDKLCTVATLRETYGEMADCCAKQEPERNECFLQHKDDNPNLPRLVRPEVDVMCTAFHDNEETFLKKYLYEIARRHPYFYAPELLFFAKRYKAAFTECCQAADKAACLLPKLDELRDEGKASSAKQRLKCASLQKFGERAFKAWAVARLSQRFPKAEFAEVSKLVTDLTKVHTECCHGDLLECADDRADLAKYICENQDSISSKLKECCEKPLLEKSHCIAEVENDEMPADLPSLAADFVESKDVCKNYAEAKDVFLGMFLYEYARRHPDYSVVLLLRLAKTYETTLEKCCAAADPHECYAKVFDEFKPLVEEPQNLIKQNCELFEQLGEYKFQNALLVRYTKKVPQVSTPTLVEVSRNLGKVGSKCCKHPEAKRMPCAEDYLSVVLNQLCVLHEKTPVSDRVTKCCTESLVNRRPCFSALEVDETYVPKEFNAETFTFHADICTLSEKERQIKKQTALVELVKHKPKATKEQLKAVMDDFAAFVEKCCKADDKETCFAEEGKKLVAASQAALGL

Row | RM0 (TLC hydrophobicity index, intercept of linear equation) [1] | logk0 (HPLC hydrophobicity index, intercept of linear equation) [2] | HSA Binding ± RSD (%) (n = 3) [3] | difference in RM0 values versus andrographolide ([1]; compared to andrographolide) | difference in logk0 values versus andrographolide ([2]; compared to andrographolide) | Structure (SMILES)
1 | y = −0.0302 x + 2.0908 | y = −0.0271 x + 1.9065 | 80.07 ± 0.74% |  |  | C=C1CC[C@@H]2[C@](C)(CO)[C@H](O)CC[C@@]2(C)[C@@H]1C/C=C1/C(=O)OC[C@H]1O [Andrographolide, andrographolide]
2 | y = −0.0334 x + 2.1672 | y = −0.0359 x + 2.8595 | 87.71 ± 0.41% | 0.08 units | 0.95 units | C=C1CC[C@@H]2[C@](C)(CO[C@@H]3O[C@H](CO)[C@@H](O)[C@H](O)[C@H]3O)CCC[C@@]2(C)[C@@H]1CCC1=CCOC1=O [Neoandrographolide, neoandrographolide]
3 | y = −0.0526 x + 4.4044 | y = −0.0394 x + 3.4218 | 95.48 ± 0.41% |  |  | O=C(/C=C/C=C/c1ccc2c(c1)OCO2)N1CCCCC1 [Piperine, piperine]

Row | Structure (SMILES) | RM0 (TLC hydrophobicity index, intercept of linear equation) [1] | logk0 (HPLC hydrophobicity index, intercept of linear equation) [2] | HSA Binding ± RSD (%) (n = 3) [3] | difference in RM0 values versus andrographolide ([1]; compared to andrographolide) | difference in logk0 values versus andrographolide ([2]; compared to andrographolide)
4 | O=C(C=Cc1ccc(O)cc1)CC(=O)C=Cc1ccc(O)cc1 [Bisdemetoxycurcumin, bisdemetoxycurcumin] | y = −0.0503 x + 4.1751 | y = −0.0447 x + 3.4174 | 98.37 ± 0.10% |  | 
5 | COc1cc(/C=C/C(=O)CC(=O)/C=C/c2ccc(O)cc2)ccc1O [Demetoxycurcumin, demetoxycurcumin] | y = −0.0504 x + 4.1781 | y = −0.0448 x + 3.4349 | 97.97 ± 0.35% |  | 
